ChEMBL document CHEMBL5260810, “Inhibition of bromodomain-containing protein 9 for the prevention of epigenetically-defined drug resistance” (Bioorg Med Chem Lett, 2017)

Key:
[1] = Cytotoxicity against human HCC4011 cells measured after 8 days; format: functional, cell-based; conditions: HCC4011, 192 h
[2] = biological target: Receptor-interacting serine/threonine-protein kinase 2 (Homo sapiens) (UniProt O43353); assay: Inhibition of RIPK2 (unknown origin) at 1 uM relative to control
[3] = test system: HPAC; assay: Cytotoxicity against human HPAC cells measured after 8 days; format: functional, cell-based; conditions: 192 h
[4] = biological target: SWI/SNF-related matrix-associated actin-dependent regulator of chromatin subfamily A member 4 (Homo sapiens, UniProt P51532); assay: Binding affinity to human partial length SMARCA4 (A1448 to S1575 residues) expressed in bacterial expression system by BROMOscan assay
[5] = test system: HCC827; assay: Cytotoxicity against human HCC827 cells measured after 8 days; format: functional, cell-based; conditions: HCC827, 192 h
[6] = test system: NUGC-4; assay: Cytotoxicity against human NUGC-4 cells measured after 8 days; format: functional, cell-based; conditions: NUGC-4, 192 h
[7] = test system: HEL; assay: Cytotoxicity against human HEL cells measured after 8 days; format: functional, cell-based; conditions: 192 h
[8] = biological target: Proto-oncogene tyrosine-protein kinase Src (Homo sapiens) (UniProt P12931); assay: Inhibition of Src (unknown origin) at 1 uM relative to control
[9] = biological target: T1, Bromodomain and PHD finger-containing protein 3 (Homo sapiens, UniProt Q9ULD4); assay: Binding affinity to human partial length BRPF3 (E588 to G701 residues) expressed in bacterial expression system by BROMOscan assay
T1 sequence (Q9ULD4 whole entry): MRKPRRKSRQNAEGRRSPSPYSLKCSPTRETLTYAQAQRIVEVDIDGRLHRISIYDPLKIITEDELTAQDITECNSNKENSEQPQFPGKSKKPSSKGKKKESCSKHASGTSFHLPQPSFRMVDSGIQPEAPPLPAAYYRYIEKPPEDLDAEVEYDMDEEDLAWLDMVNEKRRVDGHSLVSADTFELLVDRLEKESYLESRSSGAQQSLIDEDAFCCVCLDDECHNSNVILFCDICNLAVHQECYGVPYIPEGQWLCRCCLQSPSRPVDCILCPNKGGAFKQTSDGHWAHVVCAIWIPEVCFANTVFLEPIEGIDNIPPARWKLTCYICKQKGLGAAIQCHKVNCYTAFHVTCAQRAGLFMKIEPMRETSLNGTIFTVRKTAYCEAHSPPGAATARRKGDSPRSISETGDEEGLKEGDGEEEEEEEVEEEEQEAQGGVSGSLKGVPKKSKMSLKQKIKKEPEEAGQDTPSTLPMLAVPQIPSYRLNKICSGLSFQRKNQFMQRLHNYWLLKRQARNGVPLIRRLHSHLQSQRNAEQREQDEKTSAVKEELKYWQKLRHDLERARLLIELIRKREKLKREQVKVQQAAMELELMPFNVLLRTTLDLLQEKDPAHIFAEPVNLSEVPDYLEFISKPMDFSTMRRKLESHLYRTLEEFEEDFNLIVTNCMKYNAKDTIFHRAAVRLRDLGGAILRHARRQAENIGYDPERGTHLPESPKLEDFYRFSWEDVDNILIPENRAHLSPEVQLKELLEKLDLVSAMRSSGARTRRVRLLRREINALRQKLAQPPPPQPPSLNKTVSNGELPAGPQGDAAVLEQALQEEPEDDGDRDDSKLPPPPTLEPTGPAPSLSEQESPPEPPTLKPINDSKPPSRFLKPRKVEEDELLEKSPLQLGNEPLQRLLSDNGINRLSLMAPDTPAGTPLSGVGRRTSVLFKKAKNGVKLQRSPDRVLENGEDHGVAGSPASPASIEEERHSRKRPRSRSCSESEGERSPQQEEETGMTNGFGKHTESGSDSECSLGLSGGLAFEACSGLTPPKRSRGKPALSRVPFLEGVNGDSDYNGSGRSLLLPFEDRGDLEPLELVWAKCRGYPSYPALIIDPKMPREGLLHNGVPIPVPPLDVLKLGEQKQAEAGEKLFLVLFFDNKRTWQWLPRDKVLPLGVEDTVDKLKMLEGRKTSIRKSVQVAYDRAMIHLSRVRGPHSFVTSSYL

[10] = Cytotoxicity against human HCC2302 cells measured after 8 days; format: functional, cell-based; conditions: HCC2302, 192 h
[11] = test system: COLO-678; assay: Cytotoxicity against human COLO-678 cells measured after 8 days; format: functional, cell-based; conditions: COLO-678, 192 h
[12] = test system: CAL-51; assay: Cytotoxicity against human CAL-51 cells measured after 8 days; format: functional, cell-based; conditions: CAL-51, 192 h
[13] = test system: LS180; assay: Cytotoxicity against human LS180 cells measured after 8 days; format: functional, cell-based; conditions: LS180, 192 h
[14] = Cytotoxicity against human NCI-H2373 cells measured after 8 days; format: functional, cell-based; conditions: NCI-H2373, 192 h
[15] = Cytotoxicity against human MDST8 cells measured after 8 days; format: functional, cell-based; conditions: MDST8, 192 h
[16] = biological target: Histamine H1 receptor (Homo sapiens) (UniProt P35367); assay: Displacement of [3H]pyrilamine from human recombinant histamine H1 receptor at 10 uM after 60 mins by scintillation counting analysis relative to control
[17] = Cytotoxicity against human NCI-H1339 cells measured after 8 days; format: functional, cell-based; conditions: NCI-H1339, 192 h
[18] = test system: NCI-H647; assay: Cytotoxicity against human NCI-H647 cells measured after 8 days; format: functional, cell-based; conditions: NCI-H647, 192 h
[19] = biological target: Transcription initiation factor TFIID subunit 1 (Homo sapiens, UniProt P21675); assay: Binding affinity to human partial length TAF1 bromodomain 2 (D1521 to D1656 residues) expressed in bacterial expression system by BROMOscan assay
[20] = test system: GP5d; assay: Cytotoxicity against human GP5d cells measured after 8 days; format: functional, cell-based; conditions: 192 h
[21] = biological target: Bromodomain testis-specific protein (Homo sapiens, UniProt Q58F21); assay: Binding affinity to BRDT bromodomain 1/2 (unknown origin) by BROMOscan assay
[22] = biological target: Tyrosine-protein kinase Yes (Homo sapiens) (UniProt P07947); assay: Inhibition of Yes (unknown origin) at 1 uM relative to control
[23] = species: Rattus norvegicus; assay: Displacement of [3H]batrachotoxinin from rat brain sodium voltage gated ion channel site 2 at 10 uM after 60 mins by scintillation counting analysis relative to control
[24] = test system: HCC95; assay: Cytotoxicity against human HCC95 cells measured after 8 days; format: functional, cell-based; conditions: HCC95, 192 h
[25] = Cytotoxicity against human EB1 cells measured after 8 days; format: functional, cell-based; conditions: EB1, 192 h
[26] = test system: DV-90; assay: Cytotoxicity against human DV-90 cells measured after 8 days; format: functional, cell-based; conditions: DV-90, 192 h
[27] = test system: HEY; assay: Cytotoxicity against human HEY cells measured after 8 days; format: functional, cell-based; conditions: 192 h
[28] = biological target: SWI/SNF-related matrix-associated actin-dependent regulator of chromatin subfamily A member 2 (Homo sapiens, UniProt P51531); assay: Binding affinity to human partial length SMARCA2 (S1377 to Q1486 residues) expressed in bacterial expression system by BROMOscan assay

Sequence of Transcription initiation factor TFIID subunit 1 (P21675 whole entry, the tested form may be a part): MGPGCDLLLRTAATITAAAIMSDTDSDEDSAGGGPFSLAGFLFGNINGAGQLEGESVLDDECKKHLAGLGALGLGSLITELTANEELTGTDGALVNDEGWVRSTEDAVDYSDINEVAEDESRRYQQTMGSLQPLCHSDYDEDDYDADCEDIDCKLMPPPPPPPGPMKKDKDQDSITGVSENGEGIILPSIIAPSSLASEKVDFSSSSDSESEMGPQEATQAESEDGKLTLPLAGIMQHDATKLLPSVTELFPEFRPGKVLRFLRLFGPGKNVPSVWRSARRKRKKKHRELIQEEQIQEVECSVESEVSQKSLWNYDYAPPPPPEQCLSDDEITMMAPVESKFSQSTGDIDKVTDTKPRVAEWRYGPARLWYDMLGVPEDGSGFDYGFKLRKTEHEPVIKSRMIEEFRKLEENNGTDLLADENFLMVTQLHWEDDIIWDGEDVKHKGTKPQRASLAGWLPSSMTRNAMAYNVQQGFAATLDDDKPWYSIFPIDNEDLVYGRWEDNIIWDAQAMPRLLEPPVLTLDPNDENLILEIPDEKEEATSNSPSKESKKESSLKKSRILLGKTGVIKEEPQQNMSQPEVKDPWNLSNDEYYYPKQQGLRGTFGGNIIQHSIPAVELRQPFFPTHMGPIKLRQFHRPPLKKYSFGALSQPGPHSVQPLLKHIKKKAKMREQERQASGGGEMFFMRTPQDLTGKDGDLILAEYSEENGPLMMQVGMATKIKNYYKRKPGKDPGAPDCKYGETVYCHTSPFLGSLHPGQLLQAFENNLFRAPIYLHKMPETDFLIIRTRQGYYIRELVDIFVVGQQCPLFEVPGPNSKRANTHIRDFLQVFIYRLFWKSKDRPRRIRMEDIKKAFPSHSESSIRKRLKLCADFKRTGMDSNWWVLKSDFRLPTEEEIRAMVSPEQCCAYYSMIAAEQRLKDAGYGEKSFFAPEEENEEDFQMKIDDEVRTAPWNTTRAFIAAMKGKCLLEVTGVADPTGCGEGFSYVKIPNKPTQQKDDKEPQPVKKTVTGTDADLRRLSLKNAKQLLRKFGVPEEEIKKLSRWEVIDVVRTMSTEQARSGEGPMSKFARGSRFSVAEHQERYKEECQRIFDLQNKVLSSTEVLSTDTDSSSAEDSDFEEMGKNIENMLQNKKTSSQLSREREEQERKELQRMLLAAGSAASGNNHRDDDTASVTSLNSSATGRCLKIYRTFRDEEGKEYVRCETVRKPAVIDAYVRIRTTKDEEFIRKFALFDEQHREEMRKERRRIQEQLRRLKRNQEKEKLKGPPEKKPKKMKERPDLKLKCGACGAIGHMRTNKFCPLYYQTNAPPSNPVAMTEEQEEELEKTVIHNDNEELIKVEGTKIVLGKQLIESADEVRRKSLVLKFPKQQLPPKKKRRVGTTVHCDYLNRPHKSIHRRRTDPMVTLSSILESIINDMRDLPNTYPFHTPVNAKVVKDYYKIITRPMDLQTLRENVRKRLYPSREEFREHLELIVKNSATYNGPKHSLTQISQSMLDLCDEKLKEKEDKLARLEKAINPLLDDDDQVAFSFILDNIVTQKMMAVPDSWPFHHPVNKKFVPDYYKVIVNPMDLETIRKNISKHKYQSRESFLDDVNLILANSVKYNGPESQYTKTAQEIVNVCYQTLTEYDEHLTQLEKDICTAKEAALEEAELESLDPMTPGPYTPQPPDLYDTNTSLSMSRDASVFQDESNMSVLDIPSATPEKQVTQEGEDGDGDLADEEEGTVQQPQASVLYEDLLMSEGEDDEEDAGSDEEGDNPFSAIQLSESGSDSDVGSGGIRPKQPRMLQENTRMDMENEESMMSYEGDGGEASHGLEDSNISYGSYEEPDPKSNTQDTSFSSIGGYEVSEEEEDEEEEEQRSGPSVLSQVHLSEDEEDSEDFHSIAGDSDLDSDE
Sequence of Receptor-interacting serine/threonine-protein kinase 2 (Homo sapiens) (O43353 whole entry): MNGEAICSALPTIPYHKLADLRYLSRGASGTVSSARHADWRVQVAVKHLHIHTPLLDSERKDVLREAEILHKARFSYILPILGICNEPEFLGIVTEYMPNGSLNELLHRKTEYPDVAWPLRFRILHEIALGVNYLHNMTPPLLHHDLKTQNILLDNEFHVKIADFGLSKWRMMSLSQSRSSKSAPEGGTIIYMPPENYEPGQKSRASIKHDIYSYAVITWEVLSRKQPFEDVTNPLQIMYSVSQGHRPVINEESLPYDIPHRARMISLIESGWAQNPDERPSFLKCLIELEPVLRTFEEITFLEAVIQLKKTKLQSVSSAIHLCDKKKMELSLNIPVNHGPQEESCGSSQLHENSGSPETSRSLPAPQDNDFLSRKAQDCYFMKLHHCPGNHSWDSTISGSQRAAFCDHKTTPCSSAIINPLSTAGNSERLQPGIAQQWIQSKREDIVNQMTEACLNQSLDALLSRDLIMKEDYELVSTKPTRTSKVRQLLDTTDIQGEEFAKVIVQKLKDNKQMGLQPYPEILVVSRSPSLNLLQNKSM
Sequence of Proto-oncogene tyrosine-protein kinase Src (Homo sapiens) (P12931 2-536 limits assumed): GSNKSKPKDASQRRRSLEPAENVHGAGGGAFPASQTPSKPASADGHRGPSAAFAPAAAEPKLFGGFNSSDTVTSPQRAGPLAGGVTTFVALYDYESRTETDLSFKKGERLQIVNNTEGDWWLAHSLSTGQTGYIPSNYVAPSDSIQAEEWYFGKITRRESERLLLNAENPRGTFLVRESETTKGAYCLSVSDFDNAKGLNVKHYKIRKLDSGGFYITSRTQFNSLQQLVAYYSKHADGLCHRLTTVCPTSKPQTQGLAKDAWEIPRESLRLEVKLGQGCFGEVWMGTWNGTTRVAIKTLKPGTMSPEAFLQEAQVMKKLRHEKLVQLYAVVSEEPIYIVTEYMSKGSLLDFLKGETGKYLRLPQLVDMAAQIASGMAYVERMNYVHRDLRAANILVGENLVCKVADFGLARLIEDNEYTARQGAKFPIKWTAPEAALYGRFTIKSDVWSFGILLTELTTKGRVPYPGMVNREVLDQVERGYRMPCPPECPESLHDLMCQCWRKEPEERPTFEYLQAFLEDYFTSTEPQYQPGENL
Sequence of SWI/SNF-related matrix-associated actin-dependent regulator of chromatin subfamily A member 4 (P51532 whole entry, the tested form may be a part): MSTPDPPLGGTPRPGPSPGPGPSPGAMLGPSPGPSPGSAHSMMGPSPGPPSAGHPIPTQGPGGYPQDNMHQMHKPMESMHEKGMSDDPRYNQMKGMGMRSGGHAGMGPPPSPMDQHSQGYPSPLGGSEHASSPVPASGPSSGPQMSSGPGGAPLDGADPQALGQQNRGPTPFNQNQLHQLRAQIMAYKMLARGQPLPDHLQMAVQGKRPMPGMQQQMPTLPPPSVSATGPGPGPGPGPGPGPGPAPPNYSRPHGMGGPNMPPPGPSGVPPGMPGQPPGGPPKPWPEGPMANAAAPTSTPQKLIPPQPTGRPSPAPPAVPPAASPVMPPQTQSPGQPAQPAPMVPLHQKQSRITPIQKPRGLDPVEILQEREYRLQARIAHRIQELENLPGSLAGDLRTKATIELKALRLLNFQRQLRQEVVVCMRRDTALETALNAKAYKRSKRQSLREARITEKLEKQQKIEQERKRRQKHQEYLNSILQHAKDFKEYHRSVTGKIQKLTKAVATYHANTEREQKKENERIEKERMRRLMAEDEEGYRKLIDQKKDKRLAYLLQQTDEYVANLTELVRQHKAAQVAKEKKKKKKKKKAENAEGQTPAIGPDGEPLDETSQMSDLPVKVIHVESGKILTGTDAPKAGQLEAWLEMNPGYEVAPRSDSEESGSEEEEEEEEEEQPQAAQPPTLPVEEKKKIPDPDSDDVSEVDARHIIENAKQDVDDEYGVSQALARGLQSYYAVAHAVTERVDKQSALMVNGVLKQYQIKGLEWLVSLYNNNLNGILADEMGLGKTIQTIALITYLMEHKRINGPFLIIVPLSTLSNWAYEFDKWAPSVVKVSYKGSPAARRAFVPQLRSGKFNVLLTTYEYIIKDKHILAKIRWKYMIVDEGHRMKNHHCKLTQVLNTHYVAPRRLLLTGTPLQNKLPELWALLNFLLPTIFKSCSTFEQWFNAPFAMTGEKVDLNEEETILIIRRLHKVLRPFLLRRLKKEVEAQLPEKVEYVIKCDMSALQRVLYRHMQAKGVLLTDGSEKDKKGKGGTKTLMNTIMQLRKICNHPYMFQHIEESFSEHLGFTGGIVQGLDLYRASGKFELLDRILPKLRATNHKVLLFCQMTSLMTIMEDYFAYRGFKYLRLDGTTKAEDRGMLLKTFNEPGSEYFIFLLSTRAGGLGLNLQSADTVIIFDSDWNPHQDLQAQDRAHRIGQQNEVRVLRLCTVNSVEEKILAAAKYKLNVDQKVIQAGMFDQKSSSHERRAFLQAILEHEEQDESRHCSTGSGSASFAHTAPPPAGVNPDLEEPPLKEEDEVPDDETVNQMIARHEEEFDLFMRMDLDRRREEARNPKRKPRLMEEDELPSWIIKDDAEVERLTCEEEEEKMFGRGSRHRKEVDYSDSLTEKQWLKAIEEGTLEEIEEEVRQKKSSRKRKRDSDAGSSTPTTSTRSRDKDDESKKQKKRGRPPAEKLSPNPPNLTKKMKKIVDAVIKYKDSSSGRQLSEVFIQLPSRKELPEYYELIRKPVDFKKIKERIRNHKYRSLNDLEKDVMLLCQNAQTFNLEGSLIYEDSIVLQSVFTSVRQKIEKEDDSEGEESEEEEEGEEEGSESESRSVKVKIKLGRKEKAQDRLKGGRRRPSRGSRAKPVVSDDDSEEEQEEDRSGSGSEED
Sequence of Histamine H1 receptor (Homo sapiens) (P35367 whole entry): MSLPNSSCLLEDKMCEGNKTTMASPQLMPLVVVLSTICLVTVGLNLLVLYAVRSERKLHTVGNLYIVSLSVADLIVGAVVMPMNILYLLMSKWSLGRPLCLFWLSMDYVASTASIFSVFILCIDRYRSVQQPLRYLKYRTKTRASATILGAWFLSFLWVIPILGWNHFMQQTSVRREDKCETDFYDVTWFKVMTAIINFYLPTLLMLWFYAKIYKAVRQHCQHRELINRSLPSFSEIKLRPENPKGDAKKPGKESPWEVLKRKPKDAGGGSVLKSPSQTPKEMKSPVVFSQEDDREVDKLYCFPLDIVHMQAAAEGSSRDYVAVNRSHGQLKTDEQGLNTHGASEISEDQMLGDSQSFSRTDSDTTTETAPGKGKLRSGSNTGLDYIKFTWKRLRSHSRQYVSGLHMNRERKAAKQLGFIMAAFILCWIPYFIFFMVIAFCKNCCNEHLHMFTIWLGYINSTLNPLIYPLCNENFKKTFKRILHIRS

Row | SMILES | IC50 [1] | inhibition [2] | IC50 [3] | Kd [4] | IC50 [5] | IC50 [6] | IC50 [7] | inhibition [8] | Kd [9] | IC50 [10] | IC50 [11] | IC50 [12] | IC50 [13] | IC50 [14] | IC50 [15] | Activity [16] | IC50 [17] | Kd [19] | Kd [21] | Kd [28] | also measured
1 | C/C=C/Cn1cc(-c2ccc(C(=O)N3CCOCC3)cc2)c2cc[nH]c2c1=O | 20 µM | -4.6% | 20 µM | 28 µM | 20 µM | 20 µM | 18 µM | 0.9% | > 10 µM | 20 µM | 20 µM | 20 µM | 20 µM | 20 µM | 20 µM | 0% | 20 µM | 0.31 µM | 2.9 µM | > 10 µM | IC50 [18]: 20 µM; IC50 [20]: 20 µM; inhibition [22]: 11.5%; Activity [23]: 11%; IC50 [24]: 20 µM; IC50 [25]: 20 µM; IC50 [26]: 20 µM; IC50 [27]: 20 µM
2 | C/C=C/Cn1cc(-c2cc(OC)c(C(C)(C)O)cc2OC)c2cc(C)[nH]c2c1=O | – | – | – | > 10 µM | – | – | – | – | > 10 µM | – | – | – | – | – | – | – | – | > 10 µM | 6.2 µM | > 10 µM | –
3 | C/C=C/Cn1cc(-c2cc(OC)c(C(=O)N3CCOCC3)cc2OC)c2cc(C)[nH]c2c1=O | 2 µM | -1.5% | 2 µM | > 10 µM | 2 µM | 2 µM | 2 µM | 3.5% | > 10 µM | 2 µM | 2 µM | 2 µM | 2 µM | 2 µM | 2 µM | 1% | 2 µM | > 10 µM | > 10 µM | > 10 µM | IC50 [18]: 2 µM; IC50 [20]: 2 µM; inhibition [22]: 5.5%; Activity [23]: 17%; IC50 [24]: 2 µM; IC50 [25]: 2 µM; IC50 [26]: 2 µM; IC50 [27]: 2 µM
4 | C/C=C/Cn1cc(-c2ccc(C(C)(C)O)cc2OC)c2cc[nH]c2c1=O | 20 µM | -0.5% | 20 µM | > 10 µM | 20 µM | 20 µM | 14.8 µM | 4.5% | > 10 µM | 20 µM | 20 µM | 20 µM | 20 µM | 20 µM | 20 µM | 1% | 20 µM | > 10 µM | 1.2 µM | > 10 µM | IC50 [18]: 20 µM; IC50 [20]: 20 µM; inhibition [22]: 6%; Activity [23]: 12%; IC50 [24]: 20 µM; IC50 [25]: 20 µM; IC50 [26]: 20 µM; IC50 [27]: 20 µM
